{
  "source": "patent US11149277B2",
  "about": "“Method of producing enriched exosomes” (National Health Research Institutes, priority 2016, dated 2021)",
  "key": {"HMLE cells": {"system": "HMLE cells", "assay": "Exosome markers in CM-P4 fraction of non-stem HMLE cells", "assay_type": "cell-based", "conditions": "2 days treatment", "from_the_text": "FIG. 2 includes graphs and blots showing analyses of GW-treated NAMEC P4 fractions. CM-P4 GW-treated NAMECs were collected and subjected to (A) NanoSight Nanoparticle Tracking Analysis (NTA) and (B) Dynamic Light Scattering/Zeta Potential Analysis (DLS). […] D: particle diameter. RN: relative number. (C) is a blot showing the amounts of the CD44 stem cell marker and the CD81, CD9, TSG101, Alix, HSP70 and GAPDH exosome markers measured in the indicated CM-P4 fractions and cell lysates. The culture media and cell lysates were collected from the same number of NAMECs treated with vehicle (Crl), GW627368X (GW) or PGE2 (1 μM) for 4 days. (D) is a blot showing the amounts of the GAPDH and CD81 exosome markers and the CD44 stem cell marker measured in the CM-P4 fraction of NAMECs (CD44hi/CD24− stem cells) or CD44lo/CD24+ non-stem cells (HMLE cells) treated with vehicle (Crl) or GW for 2 days. 1×: P4 exosome fraction released by 1×10^6 cells; 2×: P4 exosome fraction released by 2×10^6 cells. […] (E) is a blot showing that the CD44 stem cell marker and GAPDH and CD81 exosome markers were measured in the indicated P4 conditioned medium fractions of NAMECs treated with vehicle (Crl), GW627368X (GW, 1 μg/ml), AH23848 (EP4 antagonist; 0.4, 2, 4 μg/ml), or AH6809 (EP1/2/3 antagonist; 0.8, 4, 8 μg/ml). […]"}, "NAMEC-R cells": {"system": "NAMEC-R cells", "assay": "NTA of EV release from Ras-transformed NAMEC-R cells", "assay_type": "cell-based", "conditions": "CM-P4, 4 days; GW 1 μg/ml; SQ 120 and 240 nM", "protocol": "Vesicles in the P4 fractions were counted using NTA. Data are means±SEM (n=6). ***P≤0.001; (B) The Alix, TSG101, CD63, CD81 and GAPDH exosome markers were measured in the CM-P4 fractions of NAMEC-R cells treated with vehicle (Crl), GW627368X (GW, 1 μg/ml), SQ 29,548 (SQ120/SQ240; 120 nM and 240 nM); (C) The mesenchymal marker N-cadherin, CSC markers and exosome markers were analyzed in the conditioned medium P4 fraction derived from equal numbers of vehicle-treated NAMEC-R cells (Crl), GW-treated NAMEC-R cells (GW, 1 μg/ml GW627368X for 4 days) and SQ 29,548-treated NAMEC-R cells (SQ120/SQ240; 120 nM and 240 nM for 4 days). The longer GAPDH(L) and CD81(L) exposures show the low, but detectable, presence of GAPDH and CD81 in the conditioned medium P4 fraction of vehicle-treated NAMEC-R cells.\nWe further investigated whether EP4 antagonism and TP receptor antagonism (as GW has partial affinity to the human TP receptor) affected EV release from transformed mammary epithelial stem cells. Four-day conditioned media of vehicle, GW-, or SQ (a TP antagonist)-treated Ras-transformed NAMEC mammary stem cells (NAMEC-R) were collected and subjected to differential ultracentrifugation to isolate EVs released by the cells. The numbers of vesicles in CM-P4 fractions were determined using NTA (FIG. 20, A). EP4 antagonism elicited release of ˜5000 vesicles per NAMEC-R cell. […]"}, "NAMECs": {"system": "NAMECs", "assay": "RT2 Profiler PCR arrays of signaling pathway target genes", "assay_type": "cell-based, human", "conditions": "48-hour treatment", "protocol": "The percentages of the target genes which, relative to NAMEC control cells, were inhibited, unchanged, or activated in GW627368X-treated NAMECs are presented in the plot.\nTo evaluate whether there is selective release of components of alternative signaling pathways, the activation and suppression of signaling pathways in GW-treated NAMECs were analyzed using RT2 Profiler PCR arrays. […] The decrease of p-Akt in GW-treated NAMECs and the enrichment of p-Akt in GW induced exosomes was reflected in inactivation of PI3K/Akt-signaling. Thus, EP4 antagonists are likely to interfere with the Akt-dependent signaling pathway by decreasing cellular p-Akt via exosome release."}},
  "data": [
    {"smiles": "CCOc1c2c(c(OCC)c3ccccc13)C(=O)N(c1ccc(CC(=O)NS(=O)(=O)c3ccccc3)cc1)C2", "note": "[GW627368X]", "values": [
      {"measurement": "exosome release from non-stem HMLE cells (CD81, CD44, GAPDH)", "setting": "HMLE cells", "value": "did not increase exosome release"},
      {"measurement": "vesicles released per cell", "setting": "NAMEC-R cells", "value": "~5000", "unit": "vesicles per cell"},
      {"measurement": "signaling pathways most inhibited", "setting": "NAMECs", "value": "PI3K/Akt, TGF-β, Wnt and androgen pathways"}
    ]}
  ]
}
